d = 2'-deoxy (DNA); r = 2'-OH (RNA)

The test system of one series is STAT3 gene. The series is described as follows: STAT3 expression after mTOR siRNA and/or STAT3 siRNA transfection of A549, real-time PCR. The series is classed as cell-based, human. The note with it: A549, 48 hours after transfection, relative to control siRNA nc2 = 1.0000. Background: Quantitative PCR measures a nucleic acid by following its amplification.
A further series deals with mTOR gene. The series is described as follows: mTOR expression after mTOR siRNA and/or STAT3 siRNA transfection of A549, real-time PCR. Type of series: cell-based, human. The note with it: A549, 48 hours after transfection, relative to control siRNA nc2 = 1.0000.

The substance “simTOR: siRNA targeting the only mTOR; SEQ ID NOs: 22 and 23 (chain 1 GUGGAAACAGGACCCAUGATT; chain 2 UCAUGGGUCCUGUUUCCACTT; sugars from the 5' end r19 d2, backbone not given here)” had an STAT3 expression level in the series on STAT3 gene of 1.0705. The substance further returned a mTOR expression level with mTOR gene of 0.1980.

For the substance “siSTAT3: siRNA targeting the only STAT3; SEQ ID NOS: 24 and 25 (chain 1 UGUUCUCUGAGACCCAUGATT; chain 2 UCAUGGGUCUCAGAGAACATT; sugars from the 5' end r19 d2, backbone not given here)”, the STAT3 expression level with STAT3 gene is reported as 0.6074. In the series on mTOR gene, this substance gave a mTOR expression level of 1.0507.

Source of the values: patent publication US11634712B2, “Nucleic acid simultaneously inhibiting expression of mTOR gene and STAT3 gene” (CURIGIN CO., LTD., priority 2017, dated 2023).
